# Settings: buffer; pH 7.4; 200.0 µM
row,solubility kinetic [µg/mL],Compound
1,22.1,Cc1cc(C)nc(NC(=O)c2ccc(Cl)c([N+](=O)[O-])c2)n1
2,6,CC(C)CN(C(=O)CN(C)CC(=O)Nc1ccc(Cl)c(C(F)(F)F)c1)c1c(N)n(CC(C)C)c(=O)[nH]c1=O
3,> 52.9,COc1ccc(C2C(CN3CCOCC3)C(=O)N2c2ccccc2)cc1 (stereo not given)
4,> 46.8,O=C(O)c1nccnc1C(=O)Nc1ccc(Cl)cc1Cl
5,> 57.8,O=C(NNC(=O)c1ccccc1-n1cccc1)c1cncc(Br)c1
6,< 0.7,Cc1ccc(S(=O)(=O)c2c[nH]c3ccc(Cl)cc3c2=O)cc1
7,31,Clc1cccc(OCCCCN2CCCCC2)c1
8,3.1,COc1ccc(C(=O)Nc2ccc(NC(=O)C(C)C)nc2)cc1
9,< 0.4,O=C(Nc1cccc(F)c1)c1c(O)c2cccc3c2n(c1=O)CCC3
10,3.3,CN(C)S(=O)(=O)c1ccc(C(=O)/C=C/c2cccnc2)cc1
11,> 41.9,CCC(=O)Nc1ccc2c(c1)ncn2-c1ccc(C)cc1
12,> 46.9,Cc1ccc(S(=O)(=O)N2CCN(C)CC2)c2nsnc12
13,41.4,CCc1oc(C(=O)OC)cc1CSC(=N)N.Cl
14,0.5,O=c1c2cc3c(nc2[nH]c(=S)n1-c1ccccc1)CCCC3
15,10.1,O=C1COc2ccc(C(=O)COC(=O)CCOc3ccccc3)cc2N1
16,15.6,CCc1sc(NC(=O)C(C)C)nc1-c1ccccc1
17,29.9,O=C(COC(=O)c1ccc(Br)o1)NCc1ccc2c(c1)OCO2
18,6.4,N#Cc1ccccc1OCC(=O)OCC(=O)c1c[nH]c2ccccc12
19,> 45.1,COc1cccc(NC(=O)CCN2CCOCC2)c1.Cl
20,37.4,COc1ccc(CCCc2nc3ccccc3[nH]2)cc1
21,> 43,CN(CC(=O)NC1CCCC1)S(=O)(=O)c1cnc[nH]1
22,1.6,Cc1ccc(S(=O)(=O)N(C)c2ccc3ccccc3c2)cc1

# The next lines start with the compound.
row,Compound,solubility kinetic [µg/mL]
1,COc1ccc(-n2c(=S)[nH]c3sc(-c4ccccc4)cc3c2=O)c(OC)c1,1.7
2,NC(=O)/C(=C\c1ccco1)NC(=O)c1ccc(Br)o1,42.9
3,Cc1cc(C)cc(C(=O)Nc2nc3ccccc3[nH]2)c1,1.4
4,Cc1c(C)n(CCc2c[nH]c3ccccc23)ccc1=O,38.5
5,Cc1ccc(S(=O)(=O)NC(C)C(=O)NC2CC2)cc1 (stereo not given),41
6,CC(C)(C)c1ccc(Cn2c(=O)cnc3ccccc32)cc1,0.4
7,CCOc1ccccc1/C=C(\C(=O)O)c1ccc(S(=O)(=O)N2CCCCC2)s1,> 63.2
8,O=C(NCCc1c[nH]c2ccccc12)c1ccc2c(c1)OCO2,44.5
9,CC#CC(=O)N1CCC(CO)(CCc2ccccc2)CC1,41.8
10,Cc1ccccc1NC(=O)COC(=O)c1cc(C)n(C2CC2)c1C,5.6
11,CC(C(=O)NC1CCCCCC1)n1cc([N+](=O)[O-])cn1 (stereo not given),> 42
12,CCc1ccc(C(=O)N2CCCN(C)CC2)s1,> 37.9
13,CCOC(=O)C(=O)Nc1ncc(Cl)s1,34.2
14,COc1cc(NC(c2ccccc2)c2ccccc2)cc(OC)c1OC,> 52.4
15,NS(=O)(=O)c1cc([N+](=O)[O-])ccc1NCc1cccnc1,44.8
16,O=C(c1ccccn1)c1ccc2ccccc2n1,28.8
17,CC(=O)c1ccc(NC(=O)C(C)OC(=O)/C=C/c2ccco2)cc1 (stereo not given),21.7
18,CN(C(=O)COC(=O)c1ccc2ccccc2n1)C1CCCCC1,> 49
19,Cc1ccc(N2C(=O)C3C4C=CC(CC4)C3C2=O)cc1Cl (stereo not given),1.4

row,Compound,solubility kinetic [µg/mL]
1,O=C(NCc1ccccn1)C(=O)Nc1ccccc1,> 38.3
2,Br.N#Cc1ccc(CSC2=NCCN2)cc1,> 44.7
3,Cc1cc(C)cc(N2C(=O)C3CCCN3C2=S)c1 (stereo not given),> 39.1
4,CS(=O)(=O)N(CC(=O)NCc1cccnc1)C1CCCCC1,> 48.8
5,COCCNC(=O)/C(C#N)=C/c1ccccc1Br,> 46.4
6,Clc1ccccc1CN1CCSCC1,1.6
7,Cc1cccc(N2CC(C(=O)NC3CCCCCC3)CC2=O)c1C (stereo not given),> 49.3
8,O=C(O)c1cccc(Cl)n1,> 23.6
9,CC(C)OC(=O)NCCOC(=O)Nc1ccc(Cl)cc1,36.5
10,O=C(O)c1ccc(OCCN2CCCC2=O)cc1,27.6
11,COc1ccccc1NC(=O)CCN1C(=O)c2ccccc2S1(=O)=O,> 54.1
12,Cc1cc(OCC(=O)Nc2ccncc2)ccc1Cl,40.6
13,Cc1ccc(NC(=O)C2COc3ccccc3O2)c(C)c1 (stereo not given),33
14,Cc1cccnc1NC(=S)Nc1ccc(Cl)c(Cl)c1,3.7
15,CCOC(=O)c1ccc(N2C(=O)CC(C)(CC)CC2=O)cc1,> 45.5
16,CC(=O)c1ccc(NC(=O)CN2c3cccc4cccc(c34)S2(=O)=O)cc1,7.2
17,Cc1ccccc1C(=O)NCC(=O)OC1CCCCC1=O (stereo not given),> 43.4
18,NC(=O)Cn1nc([N+](=O)[O-])nc1Oc1ccccc1F,> 42.2
19,c1cncc(-c2nc(NCC3CCCO3)c3ccccc3n2)c1 (stereo not given),> 46
